In ChEMBL document CHEMBL1134420, “Substituent effects within the DNA binding subunit of CBI analogues of the duocarmycins and CC-1065” (Bioorg Med Chem Lett, 2001):

system: L1210; experiment: Cytotoxic activity against L1210 leukemia cells; assay type: functional, cell-based, Mus musculus; settings: Mus musculus, L1210

`CCC(=O)Nc1ccc2[nH]c(C(=O)N3C[C@H]4C[C@@]45C3=CC(=O)c3ccccc35)cc2c1` and `CCCC(=O)Nc1ccc2[nH]c(C(=O)N3C[C@H]4C[C@@]45C3=CC(=O)c3ccccc35)cc2c1` are the same in IC50: 0.03 nM for the first, 0.03 nM for the second.

Going from `C#Cc1ccc2[nH]c(C(=O)N3C[C@H]4C[C@@]45C3=CC(=O)c3ccccc35)cc2c1` to `N#Cc1ccc2[nH]c(C(=O)N3C[C@H]4C[C@@]45C3=CC(=O)c3ccccc35)cc2c1`, the IC50 falls from 0.3 nM to 0.03 nM (10-fold).

Going from `COc1ccc2[nH]c(C(=O)N3C[C@H]4C[C@@]45C3=CC(=O)c3ccccc35)cc2c1` to `CCOc1ccc2[nH]c(C(=O)N3C[C@H]4C[C@@]45C3=CC(=O)c3ccccc35)cc2c1`, the IC50 falls from 0.05 nM to 0.01 nM (5-fold).

`COc1cccc2cc(C(=O)N3C[C@H]4C[C@@]45C3=CC(=O)c3ccccc35)[nH]c12` and `CC(=O)c1cccc2cc(C(=O)N3C[C@H]4C[C@@]45C3=CC(=O)c3ccccc35)[nH]c12` are the same in IC50: 0.3 nM for the first, 0.3 nM for the second.

First: CCC(=O)c1ccc2[nH]c(C(=O)N3C[C@H]4C[C@@]45C3=CC(=O)c3ccccc35)cc2c1
Second: CCCC(=O)c1ccc2[nH]c(C(=O)N3C[C@H]4C[C@@]45C3=CC(=O)c3ccccc35)cc2c1
The IC50 of the first is 6.7-fold lower: 0.003 nM for the first, 0.02 nM for the second. The first is the more potent here.

First: O=C1C=C2N(C(=O)c3cc4ccccc4[nH]3)C[C@H]3C[C@@]23c2ccccc21
Second: O=C1C=C2N(C(=O)c3cc4cc(Br)ccc4[nH]3)C[C@H]3C[C@@]23c2ccccc21
The IC50 of the first is 5.4-fold higher: 2.7 nM for the first, 0.5 nM for the second. The second is the more potent here.

Going from `CC(=O)N(C)c1ccc2[nH]c(C(=O)N3C[C@H]4C[C@@]45C3=CC(=O)c3ccccc35)cc2c1` to `CC(=O)c1ccc2[nH]c(C(=O)N3C[C@H]4C[C@@]45C3=CC(=O)c3ccccc35)cc2c1`, the IC50 falls from 0.03 nM to 0.002 nM (15-fold).

`N#Cc1cccc2cc(C(=O)N3C[C@H]4C[C@@]45C3=CC(=O)c3ccccc35)[nH]c12` and `O=C1C=C2N(C(=O)c3cc4cc(Cl)ccc4[nH]3)C[C@H]3C[C@@]23c2ccccc21` are within 1.5-fold of each other in IC50: 0.3 nM for the first, 0.4 nM for the second.

First: CC#Cc1ccc2[nH]c(C(=O)N3C[C@H]4C[C@@]45C3=CC(=O)c3ccccc35)cc2c1
Second: Cc1ccc2[nH]c(C(=O)N3C[C@H]4C[C@@]45C3=CC(=O)c3ccccc35)cc2c1
The IC50 of the first is 2-fold lower: 1 nM for the first, 2 nM for the second.

`O=C1C=C2N(C(=O)c3cc4cc(OCc5ccccc5)ccc4[nH]3)C[C@H]3C[C@@]23c2ccccc21` and `CCCOc1ccc2[nH]c(C(=O)N3C[C@H]4C[C@@]45C3=CC(=O)c3ccccc35)cc2c1` are within 1.5-fold of each other in IC50: 0.05 nM for the first, 0.04 nM for the second.

Going from `[N-]=[N+]=Nc1ccc2[nH]c(C(=O)N3C[C@H]4C[C@@]45C3=CC(=O)c3ccccc35)cc2c1` to `CC(=O)Nc1ccc2[nH]c(C(=O)N3C[C@H]4C[C@@]45C3=CC(=O)c3ccccc35)cc2c1`, the IC50 falls from 0.3 nM to 0.03 nM (10-fold). The second is the more potent here.

In the case of `CCCCOc1ccc2[nH]c(C(=O)N3C[C@H]4C[C@@]45C3=CC(=O)c3ccccc35)cc2c1`, the IC50 is reported as 0.05 nM.

same assay, conditions: l1210

Going from `COc1cc2cc(C(=O)N3CC4CC45C3=CC(=O)c3ccccc35)[nH]c2c(OC)c1OC` (single isomer, unassigned; (+)) to `O=C1C=C2N(C(=O)c3cc4c(ccc5ccccc54)[nH]3)CC3CC23c2ccccc21` (stereo in doubt; 4), the IC50 rises from 0.03 nM to 5 nM (170-fold). The first is the more potent here.

Compared with `COc1cc2cc(C(=O)N3CC4CC45C3=CC(=O)c3ccccc35)[nH]c2c(OC)c1OC` (stereo in doubt), `O=C1C=C2N(C(=O)c3cc4c(ccc5ccccc54)[nH]3)CC3CC23c2ccccc21` (stereo in doubt; 5) is 150-fold higher in IC50: 2 nM for the first, 300 nM for the second. The first is the more potent here.

Compared with `O=C1C=C2N(C(=O)c3cc4cc5ccccc5cc4[nH]3)CC3CC23c2ccccc21` (stereo in doubt; 6), `NC(=O)N1CCc2c1ccc1[nH]c(C(=O)N3CC4CC45C3=CC(=O)c3ccccc35)cc21` (stereo in doubt; (+)) is 100-fold lower in IC50: 0.5 nM for the first, 0.005 nM for the second. The second is the more potent here.

`O=C1C=C2N(C(=O)c3cc4cc5ccccc5cc4[nH]3)CC3CC23c2ccccc21` (stereo in doubt; 7) and `NC(=O)N1CCc2c1ccc1[nH]c(C(=O)N3CC4CC45C3=CC(=O)c3ccccc35)cc21` (stereo in doubt; (-)) cannot be ordered by IC50: 400 nM for the first, no less than 0.38 nM for the second.
